SMILES strings stand for the structures. pKi: −log10 of the molar value. *1 amine or outer side, *2 acyl side, *3 side chain or, on linkers, in order; H or OH if unused. Where a SMILES comes first, the peptide text is derived from it. Bridges are numbered along the chain shown (N, C = ends). [ ]: non-standard residue; d: D form. Trp(6-F) = N[C@@H](Cc1c[nH]c2cc(F)ccc12)C(=O)O; αMeAla(3-pyridyl) = C[C@](N)(Cc1cccnc1)C(=O)O; Phe(3,4-Me2) = Cc1ccc(C[C@H](N)C(=O)O)cc1C; Phe(4-Cl) = N[C@@H](Cc1ccc(Cl)cc1)C(=O)O; αMeW = C[C@](N)(Cc1c[nH]c2ccccc12)C(=O)O; 2Nal = N[C@@H](Cc1ccc2ccccc2c1)C(=O)O; AEF = NCCOc1ccc(C[C@H](N)C(=O)O)cc1; X1 = O=C(Cc1ccc(CN[*:1])cc1)[*:2]; 3Pal = N[C@@H](Cc1cccnc1)C(=O)O; αMeL = CC(C)C[C@](C)(N)C(=O)O; CH2COCH2 = O=C(C[*:1])C[*:2]; αMeV = CC(C)[C@](C)(N)C(=O)O; 3Amb = NCc1cccc(C(=O)O)c1; Dab = NCC[C@H](N)C(=O)O

One data set concerns the target T1, human IL-23R (Homo sapiens, UniProt Q5VWK5).
T1 construct: UniProtKB—Q5VWK5, amino acids 22-629; secretion signal of the plasmid (Promega N1371); expressed in transfected cells
T1 sequence (Q5VWK5 22-629): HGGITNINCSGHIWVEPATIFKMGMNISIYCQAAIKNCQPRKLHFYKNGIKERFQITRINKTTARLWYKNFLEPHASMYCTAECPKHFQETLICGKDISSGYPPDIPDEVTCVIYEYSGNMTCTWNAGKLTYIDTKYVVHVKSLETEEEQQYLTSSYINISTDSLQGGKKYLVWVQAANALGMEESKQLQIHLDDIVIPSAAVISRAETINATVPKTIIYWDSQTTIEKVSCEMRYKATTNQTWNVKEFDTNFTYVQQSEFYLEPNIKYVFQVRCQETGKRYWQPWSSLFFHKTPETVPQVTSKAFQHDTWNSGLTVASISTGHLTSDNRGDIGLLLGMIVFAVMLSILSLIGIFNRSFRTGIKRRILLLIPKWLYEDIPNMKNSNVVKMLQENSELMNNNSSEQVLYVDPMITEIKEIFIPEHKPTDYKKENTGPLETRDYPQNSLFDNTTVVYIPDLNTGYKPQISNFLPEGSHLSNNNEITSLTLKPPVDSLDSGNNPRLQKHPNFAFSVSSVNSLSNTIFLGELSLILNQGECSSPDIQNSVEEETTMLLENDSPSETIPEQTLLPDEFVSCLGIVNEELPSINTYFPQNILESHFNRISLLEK
The experiment in a line: Binding assay (NanoBRET displacement of fluorophore-labelled reference compound) for estimating binding affinity to human IL-23R. To be noted: Table 3-1; read-out: Ki hIL-23R.

A short description of data set [1]: Peptide stability in simulated intestinal fluid (SIF). The data set is classed as in vitro ADME. The settings on record: pig. Summed up:
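Peptides incubated at 37°C with gentle shaking in SGF (NaCl, HCl, pH 1.2) or SIF (phosphate pH 6.8 with 10 g/L porcine pancreatin). Samples analysed by LC-HRMS; percent remaining at each timepoint calculated from absolute peak areas relative to time zero.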

Data set [2] is described as follows: Peptide stability in simulated gastric fluid (SGF). Format: in vitro ADME. To be noted: pig. The procedure: Determination of Peptide Stability in Simulated Gastric Fluid (SGF) and Simulated Intestinal Fluid (SIF)
SGF was prepared by dissolving sodium chloride (0.2 g) in 50 mL of water. A volume of 0.7 mL of 10 M HCl was added to adjust the pH of the solution to 1.2 and the volume made up to 100 mL with water. […] SIF was prepared by dissolving monobasic potassium phosphate (0.68 g) in 50 mL of water and adjusting the pH to 6.8 with 1 M NaOH. The volume was subsequently made up to 100 mL with water. 200 mg porcine pancreatin (P1625, Sigma Aldrich) was gently dissolved into 20 mL preheated (37° C.) solution (10 g/L) immediately prior to the incubation.
The incubation was performed at 37° C. with gentle shaking. […] After the last timepoint, the sampling plate was mixed for 10 min on a shaking table and centrifuged 10 min at 2200 g. 70 μL resulting supernatant was diluted with 150 μL water, mixed and centrifugated before analysis by liquid chromatography high resolution mass spectrometry. […] Percent remaining at each timepoint was calculated relative to timepoint zero based on absolute peak areas.

[3] abbreviates: simulated intestinal fluid (SIF) with porcine pancreatin, Table 3-2, porcine pancreatin, pH 6.8, 37° C., 10 μM, 1 h, read-out: SIF (% remaining 1 h).
[4] abbreviates: simulated intestinal fluid (SIF) with porcine pancreatin, Table 3-2, porcine pancreatin, pH 6.8, 37° C., 10 μM, 4 h, read-out: SIF (% remaining 4 h).
[5] abbreviates: simulated gastric fluid (SGF) with porcine pepsin, Table 3-3, porcine pepsin, pH 1.2, 37° C., 10 μM, 1 h, read-out: SGF (% remaining 1 h).
[6] abbreviates: simulated gastric fluid (SGF) with porcine pepsin, Table 3-3, porcine pepsin, pH 1.2, 37° C., 10 μM, 4 h, read-out: SGF (% remaining 4 h).

As a reminder, the pKi is the negative decadic logarithm of the Ki, by convention in mol/L. The share remaining is what is left of the initial amount, in per cent. Take `CC(C)C[C@H]1NC(=O)[C@H](Cc2ccc3ccccc3c2)NC(=O)[C@H](Cc2ccc(OCCN)cc2)NC(=O)[C@@H]2CSCC(=O)CSC[C@H](NC(=O)[C@H](CO)NC(=O)c3cccc(c3)CNC(=O)CC[C@@H](C(=O)N[C@@H](Cc3ccc(O)cc3)C(N)=O)NC1=O)C(=O)N[C@@H](Cc1c[nH]c3ccccc13)C(=O)N[C@@H](CCC(N)=O)C(=O)N2` [Compound 46, [(3-Aminomethyl)benzoyl](1c)*SC(2a)WQC(2a)[Y(2-aminoethoxy)][2-Nal][{d}L]E(1c)Y-[NH2]] ([3Amb]SCWQC[AEF][2Nal][dL]EY-NH2; linker 3-6 via CH2COCH2; lactam N-10): on human IL-23R, the pKi was 7.32. Besides, the values for the share remaining at 1 h, 10 μM in data set [1] (setting [3]) and in data set [2] (setting [5]) were 9% and 83%, respectively. For the same compound, the share remaining at 4 h, 10 μM was 0% in data set [1] (setting [4]) and 66% in data set [2] (setting [6]).

Take `CC(C)C[C@]1(C)NC(=O)[C@H](Cc2ccc3ccccc3c2)NC(=O)[C@H](Cc2ccc(OCCN)cc2)NC(=O)[C@@H]2CCCNC(=O)CC[C@H](NC(=O)[C@H](CO)NC(=O)Cc3ccc(cc3)CNC(=O)CC[C@@H](C(=O)N[C@@H](CCN)C(=O)N[C@@H](Cc3cccnc3)C(N)=O)NC1=O)C(=O)N[C@@H](Cc1c[nH]c3ccccc13)C(=O)N[C@@H](CCC(N)=O)C(=O)N2` [Compound 124, [4-Aminomethyl-phenylacetyl](1c)*SE(2c)WQ[Orn](2c)[Y(2-aminoethoxy)][2-Nal][2-Me-Leu]E(1c)[Dab][3-(3-Pyridyl)-Ala]-[NH2]]: the negative logarithm of the Ki (pKi) on human IL-23R was 10.97. For the same compound, the fraction remaining at 1 h, 10 μM in data set [1] (setting [3]) is 35%. The figures for the fraction remaining at 4 h, 10 μM in data set [1] (setting [4]) and in data set [2] (setting [6]) were 0% and 89%, respectively.

As for `CC(C)C[C@]1(C)NC(=O)[C@H](Cc2c[nH]c3cc(F)ccc23)NC(=O)[C@H](Cc2ccc(OCCN)cc2)NC(=O)[C@@H]2CSCC(=O)CSC[C@H](NC(=O)[C@H](CO)NC(=O)Cc3ccc(cc3)CNC(=O)CC[C@@H](C(=O)N[C@@H](CCN)C(=O)N[C@@H](Cc3cccnc3)C(N)=O)NC1=O)C(=O)N[C@@H](Cc1c[nH]c3ccccc13)C(=O)N[C@@H](CCC(N)=O)C(=O)N2` [Compound 121, [4-Aminomethyl-phenylacetyl](1c)*SC(2a)WQC(2a)[Y(2-aminoethoxy)][6-F-Trp][2-Me-Leu]E(1c)[Dab][3-(3-Pyridyl)-Ala]-[NH2]] ([X1]SCWQC[AEF][Trp(6-F)][αMeL]E[Dab][3Pal]-NH2; linker 3-6 via CH2COCH2; lactam N-10), on human IL-23R, the pKi is 11.02. In data set [1] (pH 6.8), this compound came in with a fraction remaining at 1 h, 10 μM of 57% and a fraction remaining at 4 h, 10 μM of 6%. For the same compound, in data set [2] (pH 1.2), the share remaining at 1 h, 10 μM was 82% and the amount remaining at 4 h, 10 μM was 80%.

Regarding `CC(C)C[C@]1(C)NC(=O)[C@H](Cc2ccc3ccccc3c2)NC(=O)[C@H](Cc2ccc(OCCN)cc2)NC(=O)[C@@H]2CSCC(=O)CSC[C@H](NC(=O)[C@H](CO)NC(=O)c3cccc(c3)CNC(=O)CC[C@@H](C(=O)N[C@@H](CCCNC(=N)N)C(N)=O)NC1=O)C(=O)N[C@@H](Cc1c[nH]c3ccccc13)C(=O)N[C@@H](CCC(N)=O)C(=O)N2` [Compound 38, [(3-Aminomethyl)benzoyl](1c)*SC(2a)WQC(2a)[Y(2-aminoethoxy)][2-Nal][2-Me-Leu]E(1c)R-[NH2]] ([3Amb]SCWQC[AEF][2Nal][αMeL]ER-NH2; linker 3-6 via CH2COCH2; lactam N-10), the pKi on human IL-23R is 8.59. Further, in data set [1] (setting [3]), the share remaining at 1 h, 10 μM is 29%. Moreover, the share remaining at 4 h, 10 μM in data set [1] (setting [4]) is 5%; in data set [2] (setting [6]), 84%.

With `CC(=O)N[C@@H](CC(=O)O)C(=O)N[C@H]1CCC(=O)NCCCC[C@@H](C(=O)N[C@@H](CCCNC(=N)N)C(N)=O)NC(=O)[C@](C)(CC(C)C)NC(=O)[C@H](Cc2ccc3ccccc3c2)NC(=O)[C@H](Cc2c[nH]c3ccccc23)NC(=O)[C@@H]2CSCC(=O)CSC[C@H](NC(=O)[C@H]([C@@H](C)O)NC1=O)C(=O)N[C@@H](Cc1c[nH]c3ccccc13)C(=O)N[C@@H](CCC(N)=O)C(=O)N2` [Compound 57, [Ac]-DE(1c)TC(2a)WQC(2a)W[2-Nal][2-Me-Leu]K(1c)R-[NH2]] (Ac-DETCWQCW[2Nal][αMeL]KR-NH2; lactam 2-11; linker 4-7 via CH2COCH2), the share remaining at 1 h, 10 μM in data set [1] (setting [3]) was 7%; in data set [2] (setting [5]), 21%. Besides, the share remaining at 4 h, 10 μM in data set [1] (setting [4]) is 0%; in data set [2] (setting [6]) it was 1%.

With `CC(C)C[C@]1(C)NC(=O)[C@H](Cc2ccc3ccccc3c2)NC(=O)[C@H](Cc2ccccc2)NC(=O)[C@@H]2CCNC(=O)CC[C@H](NC(=O)[C@H](CO)NC(=O)Cc3ccc(cc3)CNC(=O)CC[C@@H](C(=O)N[C@@H](CCN)C(N)=O)NC1=O)C(=O)N[C@@H](Cc1c[nH]c3ccccc13)C(=O)N[C@@H](CCC(N)=O)C(=O)N2` [Compound 130, [4-Aminomethyl-phenylacetyl](1c)*SE(2c)WQ[Dab](2c)F[2-Nal][2-Me-Leu]E(1c)[Dab]-[NH2]] ([X1]SEWQ[Dab]F[2Nal][αMeL]E[Dab]-NH2; lactam 3-6, N-10), the share remaining at 1 h, 10 μM in data set [1] (setting [3]) was 1%; in data set [2] (setting [5]), 59%. Besides, the amount remaining at 4 h, 10 μM in data set [1] (setting [4]) is 0%; in data set [2] (setting [6]) it was 14%.

As for `CC(=O)N[C@@H](CC(=O)O)C(=O)N[C@H]1CCC(=O)NCCCC[C@@H](C(=O)N[C@@H](CCC(=O)O)C(=O)N[C@@H](CC(N)=O)C(=O)NCC(N)=O)NC(=O)[C@](C)(CC(C)C)NC(=O)[C@H](Cc2ccc3ccccc3c2)NC(=O)[C@H](Cc2c[nH]c3ccccc23)NC(=O)[C@@H]2CSCC(=O)CSC[C@H](NC(=O)[C@H](CO)NC1=O)C(=O)N[C@@H](Cc1c[nH]c3ccccc13)C(=O)N[C@@H](CCC(N)=O)C(=O)N2` [Compound 58, [Ac]-DE(1c)SC(2a)WQC(2a)W[2-Nal][2-Me-Leu]K(1c)ENG-[NH2]] (Ac-DESCWQCW[2Nal][αMeL]KENG-NH2; lactam 2-11; linker 4-7 via CH2COCH2), the share remaining at 1 h, 10 μM was 80% in data set [1] (setting [3]) and 61% in data set [2] (setting [5]). For the same compound, the values for the share remaining at 4 h, 10 μM in data set [1] (setting [4]) and in data set [2] (setting [6]) were 45% and 8%, respectively.

For the compound `CC[C@H](C)[C@@H]1NC(=O)Cc2ccc(cc2)CNC(=O)CC[C@@H](C(=O)N[C@@H](CCN)C(=O)N[C@@](C)(Cc2cccnc2)C(N)=O)NC(=O)[C@](C)(C(C)C)NC(=O)[C@H](Cc2ccc(C)c(C)c2)NC(=O)[C@H](Cc2ccc(Cl)cc2)NC(=O)[C@@H]2CCNC(=O)CC[C@H](NC1=O)C(=O)N[C@@H](Cc1c[nH]c3ccccc13)C(=O)N[C@@H](CCC(N)=O)C(=O)N2` [Compound 171, [4-Aminomethyl-phenylacetyl](1c)*IE(2c)WQ[Dab](2c)[F(4-Cl)][F(3,4-Me)][2-Me-Val]E(1c)[Dab][2-Me-3-(3-Pyridyl)-Ala]-[NH2]] ([X1]IEWQ[Dab][Phe(4-Cl)][Phe(3,4-Me2)][αMeV]E[Dab][αMeAla(3-pyridyl)]-NH2; lactam 3-6, N-10), the amount remaining at 4 h, 10 μM in data set [1] (setting [4]) is 68%; in data set [2] (setting [6]) it was 75%.

Turning to `CC[C@H](C)[C@@H]1NC(=O)Cc2ccc(cc2)CNC(=O)CC[C@@H](C(=O)N[C@@H](CCN)C(=O)N[C@@](C)(Cc2cccnc2)C(N)=O)NC(=O)[C@](C)(C(C)C)NC(=O)[C@H](Cc2ccc(C)c(C)c2)NC(=O)[C@](C)(Cc2c[nH]c3ccccc23)NC(=O)[C@@H]2CCNC(=O)CC[C@H](NC1=O)C(=O)N[C@@H](Cc1c[nH]c3ccccc13)C(=O)N[C@@H](CCC(N)=O)C(=O)N2` [Compound 172, [4-Aminomethyl-phenylacetyl](1c)*IE(2c)WQ[Dab](2c)[alpha-Me-Trp][F(3,4-Me)][2-Me-Val]E(1c)[Dab][2-Me-3-(3-Pyridyl)-Ala]-[NH2]] ([X1]IEWQ[Dab][αMeW][Phe(3,4-Me2)][αMeV]E[Dab][αMeAla(3-pyridyl)]-NH2; lactam 3-6, N-10), the fraction remaining at 4 h, 10 μM in data set [1] (setting [4]) is 70%; in data set [2] (setting [6]) it was 99%.
